According to US12479843B2, “Spiro ring-containing quinazoline compounds” (WIGEN BIOMEDICINE TECHNOLOGY (SHANGHAI) CO., LTD., priority 2019, dated 2025):
pIC50: −log10 of the molar value.

What was measured:
[1] = test system: pERK level in H358 cells; test: pERK and ERK protein content assay in H358 cells (ELISA); type: cell-based; conditions: Homo sapiens, NCI-H358, compound 1 μM, 24 h, pERK/ERK ratio compared with DMSO group, read-out: Inhibition rate (%) of pERK level
In short: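 Percent inhibition of pERK relative to DMSO, from the ELISA pERK/ERK ratio in lysed H358 cells. Compound applied at 1 μM for 24 h after one day of growth.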

[2] = test system: H358 cells; test: Antiproliferative activity against H358 cells (Cell Titer Glow, ultra-low attachment plate); type: cell-based; conditions: Homo sapiens, NCI-H358, 72 h, 96-well ultra-low attachment plate, three days after addition of compound, Cell Titer Glow
Experimental: 2500 H358 cells were seeded in a 96-well ultra-low attachment plate (corning, 7007). After one day of growth, a serially diluted compound (a maximum concentration of 5 μM, 5-fold dilution, a total of five doses) was added. Three days after the addition of the compound, Cell Titer Glow (Promega, G9681) was added to evaluate pellet growth, and the IC50 value was calculated.

Row | SMILES | inhibition at 1 µM [1] | pIC50 [2]
1 | C=CC(=O)N1CC2(CCN(c3nc(N4CC(N5CC(OCC)C5)C4)nc4c(OCC(F)(F)F)c(-c5c(C)ccc6[nH]ncc56)c(C5CC5)cc34)CC2)C1 [Compound 170] | 50 to 90% | 6.00 to 6.52
2 | C=CC(=O)N1CC2(CCN(c3nc(N4CC(N5CC[C@H](F)C5)C4)nc4c(OCC(F)(F)F)c(-c5c(C)ccc6[nH]ncc56)c(C5CC5)cc34)CC2)C1 [Compound 172] | > 90% | > 6.52
3 | C=CC(=O)N1CC2(CCN(c3nc(N4CC(N5CC[C@H](OC)C5)C4)nc4c(OCC(F)(F)F)c(-c5c(C)ccc6[nH]ncc56)c(C5CC5)cc34)CC2)C1 [Compound 174] | > 90% | > 6.52
4 | C=CC(=O)N1CC2(CCN(c3nc(N4CC(N5CC[C@@H](OC)C5)C4)nc4c(OCC(F)(F)F)c(-c5c(C)ccc6[nH]ncc56)c(C5CC5)cc34)CC2)C1 [Compound 175] | > 90% | > 6.52
5 | C=CC(=O)N1CC2(CCN(c3nc(N4CC(N5CCC(F)(F)C5)C4)nc4c(OCC(F)(F)F)c(-c5c(C)ccc6[nH]ncc56)c(C5CC5)cc34)CC2)C1 [Compound 176] | 50 to 90% | 6.00 to 6.52
6 | C=CC(=O)N1CC2(CCN(c3nc(N4CC(N5CCCCC5)C4)nc4c(OCC(F)(F)F)c(-c5c(C)ccc6[nH]ncc56)c(C5CC5)cc34)CC2)C1 [Compound 177] | > 90% | > 6.52
7 | C=CC(=O)N1CC2(CCN(c3nc(N4CC(N5CCC(F)CC5)C4)nc4c(OCC(F)(F)F)c(-c5c(C)ccc6[nH]ncc56)c(C5CC5)cc34)CC2)C1 [Compound 178] | > 90% | > 6.52
8 | C=CC(=O)N1CC2(CCN(c3nc(N4CC(N5CCC(OC)CC5)C4)nc4c(OCC(F)(F)F)c(-c5c(C)ccc6[nH]ncc56)c(C5CC5)cc34)CC2)C1 [Compound 179] | > 90% | > 6.52
9 | C=CC(=O)N1CC2(CCN(c3nc(N4CC(N5CCC(F)(F)CC5)C4)nc4c(OCC(F)(F)F)c(-c5c(C)ccc6[nH]ncc56)c(C5CC5)cc34)CC2)C1 [Compound 180] | > 90% | 6.00 to 6.52
10 | C=CC(=O)N1CC2(CCN(c3nc(N4CC[C@H](N5CCC5)C4)nc4c(OCC(F)(F)F)c(-c5c(C)ccc6[nH]ncc56)c(C5CC5)cc34)CC2)C1 [Compound 181] | > 90% | > 6.52
11 | C=CC(=O)N1CC2(CCN(c3nc(N4CC[C@@H](N5CCC5)C4)nc4c(OCC(F)(F)F)c(-c5c(C)ccc6[nH]ncc56)c(C5CC5)cc34)CC2)C1 [Compound 182] | > 90% | > 6.52
12 | C=CC(=O)N1CC2(CCN(c3nc(N4CC[C@H](N5CCCC5)C4)nc4c(OCC(F)(F)F)c(-c5c(C)ccc6[nH]ncc56)c(C5CC5)cc34)CC2)C1 [Compound 183] | > 90% | > 6.52
13 | C=CC(=O)N1CC2(CCN(c3nc(N4CC[C@@H](N5CCCC5)C4)nc4c(OCC(F)(F)F)c(-c5c(C)ccc6[nH]ncc56)c(C5CC5)cc34)CC2)C1 [Compound 184] | > 90% | > 6.52
14 | C=CC(=O)N1CC2(CCN(c3nc(N4CC[C@H](N(C)C)C4)nc4c(OCC(F)(F)F)c(-c5c(C)ccc6[nH]ncc56)c(C5CC5)cc34)CC2)C1 [Compound 185] | > 90% | > 6.52
15 | C=CC(=O)N1CC2(CCN(c3nc(N4CC[C@@H](N(C)C)C4)nc4c(OCC(F)(F)F)c(-c5c(C)ccc6[nH]ncc56)c(C5CC5)cc34)CC2)C1 [Compound 186] | > 90% | > 6.52
16 | C=CC(=O)N1CC2(CCN(c3nc(N4CC[C@H](N(C)CC)C4)nc4c(OCC(F)(F)F)c(-c5c(C)ccc6[nH]ncc56)c(C5CC5)cc34)CC2)C1 [Compound 187] | > 90% | > 6.52
17 | C=CC(=O)N1CC2(CCN(c3nc(N4CC[C@@H](N(C)CC)C4)nc4c(OCC(F)(F)F)c(-c5c(C)ccc6[nH]ncc56)c(C5CC5)cc34)CC2)C1 [Compound 188] | > 90% | > 6.52
18 | C=CC(=O)N1CC2(CCN(c3nc(N4CC[C@H](N(CC)CC)C4)nc4c(OCC(F)(F)F)c(-c5c(C)ccc6[nH]ncc56)c(C5CC5)cc34)CC2)C1 [Compound 189] | > 90% | > 6.52
19 | C=CC(=O)N1CC2(CCN(c3nc(N4CC[C@@H](N(CC)CC)C4)nc4c(OCC(F)(F)F)c(-c5c(C)ccc6[nH]ncc56)c(C5CC5)cc34)CC2)C1 [Compound 190] | > 90% | > 6.52

Row | SMILES | inhibition at 1 µM [1] | pIC50 [2]
20 | C=CC(=O)N1CC2(CCN(c3nc(N4CC[C@H](N5CC[C@H](F)C5)C4)nc4c(OCC(F)(F)F)c(-c5c(C)ccc6[nH]ncc56)c(C5CC5)cc34)CC2)C1 [Compound 191] | > 90% | > 6.52
21 | C=CC(=O)N1CC2(CCN(c3nc(N4CC[C@@H](N5CC[C@H](F)C5)C4)nc4c(OCC(F)(F)F)c(-c5c(C)ccc6[nH]ncc56)c(C5CC5)cc34)CC2)C1 [Compound 192] | > 90% | > 6.52
22 | C=CC(=O)N1CC2(CCN(c3nc(N4CC[C@H](N5CC[C@@H](F)C5)C4)nc4c(OCC(F)(F)F)c(-c5c(C)ccc6[nH]ncc56)c(C5CC5)cc34)CC2)C1 [Compound 193] | > 90% | > 6.52
23 | C=CC(=O)N1CC2(CCN(c3nc(N4CC[C@@H](N5CC[C@@H](F)C5)C4)nc4c(OCC(F)(F)F)c(-c5c(C)ccc6[nH]ncc56)c(C5CC5)cc34)CC2)C1 [Compound 194] | > 90% | > 6.52
24 | C=CC(=O)N1CC2(CCN(c3nc(N4CC[C@H](N5CC[C@H](OC)C5)C4)nc4c(OCC(F)(F)F)c(-c5c(C)ccc6[nH]ncc56)c(C5CC5)cc34)CC2)C1 [Compound 195] | > 90% | > 6.52
25 | C=CC(=O)N1CC2(CCN(c3nc(N4CC[C@@H](N5CC[C@H](OC)C5)C4)nc4c(OCC(F)(F)F)c(-c5c(C)ccc6[nH]ncc56)c(C5CC5)cc34)CC2)C1 [Compound 196] | > 90% | > 6.52
26 | C=CC(=O)N1CC2(CCN(c3nc(N4CC[C@H](N5CC[C@@H](OC)C5)C4)nc4c(OCC(F)(F)F)c(-c5c(C)ccc6[nH]ncc56)c(C5CC5)cc34)CC2)C1 [Compound 197] | > 90% | > 6.52
27 | C=CC(=O)N1CC2(CCN(c3nc(N4CC[C@@H](N5CC[C@@H](OC)C5)C4)nc4c(OCC(F)(F)F)c(-c5c(C)ccc6[nH]ncc56)c(C5CC5)cc34)CC2)C1 [Compound 198] | > 90% | > 6.52
28 | C=CC(=O)N1CC2(CCN(c3nc(N4CC[C@H](N5CCC(F)(F)C5)C4)nc4c(OCC(F)(F)F)c(-c5c(C)ccc6[nH]ncc56)c(C5CC5)cc34)CC2)C1 [Compound 199] | > 90% | 6.00 to 6.52
29 | C=CC(=O)N1CC2(CCN(c3nc(N4CC[C@@H](N5CC(F)C5)C4)nc4c(OCC(F)(F)F)c(-c5c(C)ccc6[nH]ncc56)c(C5CC5)cc34)CC2)C1 [Compound 202] | > 90% | > 6.52
30 | C=CC(=O)N1CC2(CCN(c3nc(N4CC[C@@H](N5CC(OC)C5)C4)nc4c(OCC(F)(F)F)c(-c5c(C)ccc6[nH]ncc56)c(C5CC5)cc34)CC2)C1 [Compound 204] | > 90% | 6.00 to 6.52
31 | C=CC(=O)N1CC2(CCN(c3nc(N4CC[C@H](N5CC(F)(F)C5)C4)nc4c(OCC(F)(F)F)c(-c5c(C)ccc6[nH]ncc56)c(C5CC5)cc34)CC2)C1 [Compound 205] | 50 to 90% | 6.00 to 6.52
32 | C=CC(=O)N1CC2(CCN(c3nc(N4CC[C@@H](N5CC(F)(F)C5)C4)nc4c(OCC(F)(F)F)c(-c5c(C)ccc6[nH]ncc56)c(C5CC5)cc34)CC2)C1 [Compound 206] | 50 to 90% | 6.00 to 6.52
33 | C=CC(=O)N1CC2(CCN(c3nc(N4CC[C@H](N5CCCCC5)C4)nc4c(OCC(F)(F)F)c(-c5c(C)ccc6[nH]ncc56)c(C5CC5)cc34)CC2)C1 [Compound 207] | > 90% | > 6.52
34 | C=CC(=O)N1CC2(CCN(c3nc(N4CC[C@@H](N5CCCCC5)C4)nc4c(OCC(F)(F)F)c(-c5c(C)ccc6[nH]ncc56)c(C5CC5)cc34)CC2)C1 [Compound 208] | > 90% | > 6.52
35 | C=CC(=O)N1CC2(CCN(c3nc(N4CC[C@H](N5CCOCC5)C4)nc4c(OCC(F)(F)F)c(-c5c(C)ccc6[nH]ncc56)c(C5CC5)cc34)CC2)C1 [Compound 209] | > 90% | > 6.52
36 | C=CC(=O)N1CC2(CCN(c3nc(N4CC[C@@H](N5CCOCC5)C4)nc4c(OCC(F)(F)F)c(-c5c(C)ccc6[nH]ncc56)c(C5CC5)cc34)CC2)C1 [Compound 210] | > 90% | > 6.52
37 | C=CC(=O)N1CC2(CCN(c3nc(N4CC[C@H](N5CCC(F)CC5)C4)nc4c(OCC(F)(F)F)c(-c5c(C)ccc6[nH]ncc56)c(C5CC5)cc34)CC2)C1 [Compound 211] | > 90% | > 6.52
